Reference: ChEMBL document CHEMBL3872259, “Synthesis, characterization, and in vitro SAR evaluation of N,N'-bis(arylmethyl)-C2-alkyl substituted imidazolium salts” (Bioorg Med Chem Lett, 2017)

Key:
[1] = Growth inhibition of human NCI-H522 cells measured after 48 hrs by sulforhodamine B assay; assay type: functional; conditions: NCI-H522, 48 h
[2] = Antiproliferative activity against human NCI-H1975 cells assessed as reduction in cell viability measured after 72 hrs by MTT assay; assay type: functional, cell-based; conditions: NCI-H1975, 72 h
[3] = Antiproliferative activity against human A549/ATCC cells assessed as cell growth at 10 uM measured after 48 hrs by sulforhodamine B assay relative to control; assay type: functional; conditions: A549, 48 h, read-out: Activity
[4] = Growth inhibition of human NCI-H322M cells measured after 48 hrs by sulforhodamine B assay; assay type: functional; conditions: for CC50: read-out: LC50 (the source's name)
[5] = Antiproliferative activity against human EKVX cells assessed as cell growth at 10 uM measured after 48 hrs by sulforhodamine B assay relative to control; assay type: functional; conditions: read-out: Activity
[6] = Antiproliferative activity against human HCC827 cells assessed as reduction in cell viability measured after 72 hrs by MTT assay; assay type: functional, cell-based; conditions: HCC827, 72 h
[7] = Antiproliferative activity against human HOP92 cells assessed as cell growth at 10 uM measured after 48 hrs by sulforhodamine B assay relative to control; assay type: functional; conditions: HOP-92, 48 h, read-out: Activity
[8] = Antiproliferative activity against human NCI-H23 cells assessed as cell growth at 10 uM measured after 48 hrs by sulforhodamine B assay relative to control; assay type: functional; conditions: NCI-H23, 48 h, read-out: Activity
[9] = Antiproliferative activity against human HOP62 cells assessed as cell growth at 10 uM measured after 48 hrs by sulforhodamine B assay relative to control; assay type: functional; conditions: HOP-62, 48 h, read-out: Activity
[10] = Antiproliferative activity against human NCI-H226 cells assessed as cell growth at 10 uM measured after 48 hrs by sulforhodamine B assay relative to control; assay type: functional; conditions: NCI-H226, 48 h, read-out: Activity
[11] = Antiproliferative activity against human NCI-H522 cells assessed as cell growth at 10 uM measured after 48 hrs by sulforhodamine B assay relative to control; assay type: functional; conditions: NCI-H522, 48 h, read-out: Activity
[12] = Growth inhibition of human NCI-H23 cells measured after 48 hrs by sulforhodamine B assay; assay type: functional; conditions: NCI-H23, 48 h; for CC50: read-out: LC50 (the source's name)
[13] = Antiproliferative activity against human NCI-H460 cells assessed as cell growth at 10 uM measured after 48 hrs by sulforhodamine B assay relative to control; assay type: functional; conditions: NCI-H460, 48 h, read-out: Activity
[14] = Growth inhibition of human EKVX cells measured after 48 hrs by sulforhodamine B assay; assay type: functional; conditions: for CC50: read-out: LC50 (the source's name)
[15] = Growth inhibition of human HOP62 cells measured after 48 hrs by sulforhodamine B assay; assay type: functional; conditions: HOP-62, 48 h; for CC50: read-out: LC50 (the source's name)
[16] = Antiproliferative activity against human NCI-H322M cells assessed as cell growth at 10 uM measured after 48 hrs by sulforhodamine B assay relative to control; assay type: functional; conditions: read-out: Activity
[17] = Aqueous solubility of the compound; assay type: physicochemical; conditions: buffer
[18] = Antiproliferative activity against human A549 cells assessed as reduction in cell viability measured after 72 hrs by MTT assay; assay type: functional, cell-based; conditions: A549, 72 h
[19] = Growth inhibition of human HOP92 cells measured after 48 hrs by sulforhodamine B assay; assay type: functional; conditions: HOP-92, 48 h; for CC50: read-out: LC50 (the source's name)
[20] = Growth inhibition of human NCI-H226 cells measured after 48 hrs by sulforhodamine B assay; assay type: functional; conditions: NCI-H226, 48 h; for CC50: read-out: LC50 (the source's name)
[21] = Antiproliferative activity against human NCI-H460 cells assessed as reduction in cell viability measured after 72 hrs by MTT assay; assay type: functional, cell-based; conditions: NCI-H460, 72 h; for CC50: read-out: LC50 (the source's name)

Cc1n(Cc2ccc3ccccc3n2)cc[n+]1Cc1ccc2ccccc2c1.[Br-]
GI50 [1]: 0.271 µM
LC50 (50% lethal concentration) [1]: 12.4 µM
TGI [1]: 1.46 µM
IC50 [2]: < 1 µM
growth at 10 µM [3]: 33.5%
GI50 [4]: 3.27 µM
TGI [4]: 14.7 µM
CC50 [4]: 40.4 µM
growth at 10 µM [5]: 48.3%
IC50 [6]: 9 µM
growth at 10 µM [7]: -6.1%
growth at 10 µM [8]: 2.01%
growth at 10 µM [9]: 13.3%
growth at 10 µM [10]: 12.7%
growth at 10 µM [11]: 3.95%
GI50 [12]: 1.83 µM
TGI [12]: 13.4 µM
CC50 [12]: 62 µM
growth at 10 µM [13]: 10.2%
GI50 [14]: 3.93 µM
TGI [14]: 27.6 µM
CC50 [14]: > 100 µM
GI50 [15]: 1.53 µM
TGI [15]: 6.66 µM
CC50 [15]: 34.5 µM
growth at 10 µM [16]: 26%
solubility [17]: < 5 mM
GI50 [18]: 1.31 µM
IC50 [18]: 3 µM
LC50 [18]: 43.5 µM
TGI [18]: 13.1 µM
GI50 [19]: 0.518 µM
TGI [19]: 3.81 µM
CC50 [19]: 27 µM
GI50 [20]: 1.86 µM
TGI [20]: 10.9 µM
CC50 [20]: 47.5 µM
GI50 [21]: 0.959 µM
IC50 [21]: 2 µM
TGI [21]: 14.4 µM
CC50 [21]: 47 µM

CCCc1n(Cc2ccc3ccccc3n2)cc[n+]1Cc1ccc2ccccc2c1.[Cl-]
GI50 [1]: 0.249 µM
LC50 (50% lethal concentration) [1]: 4.59 µM
TGI [1]: 1.13 µM
IC50 [2]: 2 µM
growth at 10 µM [3]: 39.1%
GI50 [4]: 3.46 µM
TGI [4]: 15 µM
CC50 [4]: 39.6 µM
growth at 10 µM [5]: 41.6%
IC50 [6]: 6 µM
growth at 10 µM [7]: -18.6%
growth at 10 µM [8]: -11.6%
growth at 10 µM [9]: 8.38%
growth at 10 µM [10]: 12.3%
growth at 10 µM [11]: -0.78%
GI50 [12]: 0.479 µM
TGI [12]: 10.6 µM
CC50 [12]: 52 µM
growth at 10 µM [13]: 7.73%
GI50 [14]: 2.16 µM
TGI [14]: 14.9 µM
CC50 [14]: 52.7 µM
GI50 [15]: 1.63 µM
TGI [15]: 5.38 µM
CC50 [15]: 26.1 µM
growth at 10 µM [16]: 25.7%
solubility [17]: > 10 mM
GI50 [18]: 1.88 µM
IC50 [18]: 3 µM
LC50 [18]: 37.3 µM
TGI [18]: 11.8 µM
GI50 [19]: 0.188 µM
TGI [19]: 1.12 µM
CC50 [19]: 9.13 µM
GI50 [20]: 1.2 µM
TGI [20]: 7.6 µM
CC50 [20]: 39.7 µM
GI50 [21]: 0.658 µM
IC50 [21]: 3 µM
TGI [21]: 10.6 µM
CC50 [21]: 46.5 µM

CCCCc1n(Cc2ccc3ccccc3n2)cc[n+]1Cc1ccc2ccccc2n1.[Cl-]
GI50 [1]: 0.435 µM
LC50 (50% lethal concentration) [1]: 32 µM
TGI [1]: 4.19 µM
IC50 [2]: < 1 µM
growth at 10 µM [3]: 44.8%
GI50 [4]: 3.57 µM
TGI [4]: 16.3 µM
CC50 [4]: 42 µM
growth at 10 µM [5]: 50.9%
IC50 [6]: 7 µM
growth at 10 µM [7]: 4.31%
growth at 10 µM [8]: 4.77%
growth at 10 µM [9]: 25.2%
growth at 10 µM [10]: 26.7%
growth at 10 µM [11]: 10%
GI50 [12]: 0.48 µM
TGI [12]: 7.27 µM
CC50 [12]: 43.6 µM
growth at 10 µM [13]: 16.5%
GI50 [14]: 4 µM
TGI [14]: 22 µM
CC50 [14]: 72.4 µM
GI50 [15]: 2.8 µM
TGI [15]: 12 µM
CC50 [15]: 39.8 µM
growth at 10 µM [16]: 41.4%
solubility [17]: > 80 mM
GI50 [18]: 4.76 µM
IC50 [18]: 7 µM
LC50 [18]: 47.6 µM
TGI [18]: 18.5 µM
GI50 [19]: 0.339 µM
TGI [19]: 3.36 µM
CC50 [19]: 20.1 µM
GI50 [20]: 2.37 µM
TGI [20]: 13.6 µM
CC50 [20]: 60.3 µM
GI50 [21]: 2.17 µM
IC50 [21]: 5 µM
TGI [21]: 11.6 µM
CC50 [21]: 38.5 µM
